The values that follow are results of earlier work, collected in patent US20020064550A1, “Edible candy compositions and methods of using same” (AkPharma, Inc., priority 2000, published 2002).

Where two headings read alike, the source gives them in different places.

The test system of data set [1] is symptoms of bladder irritants. The note with it: 200 reported patients; calcium glycerophosphate taken with foods; 79.4% without calcium glycerophosphate.
For data set [2], the system named is dental caries. The note with it: sugar-content diets of animals.
Data set [3] relates to dental caries. The note with it: human children.

“1,2,3-propanetriol, mono(dihydrogen phosphate) calcium salt (1:1) [calcium glycerophosphate]”: the “over-all symptoms of bladder irritants” value in data set [1] is reported as 14.6%. Besides, the dental caries reduction entry is listed as “confirm dental caries reduction” in the data set on dental caries [2] and “fail to confirm same” in the data set on dental caries [3].
